Activity calls are given as the source filed them. No rule for the calls is given here.
Legend:
[1] = test system: human endothelial cells, TNFa-induced E-selectin, imaging; assay: E-selectin induction blockers, endothelial cells – imaging, retest plus dose response, cell count, confirmation (AID 1288);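 as to inhibition: 0% = stimulated vehicle wells and 100% = unstimulated vehicle wells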
[2] = as above; conditions: human endothelial cells, TNFa-induced E-selectin, imaging; for cell count: cell count toxicity, at 10 µM, stronger effect = lower value; for inhibition: at 2 µM, stronger effect = higher value

SMILES	IC50 [1]	cell count [2]	inhibition [2]
COc1ccc(-c2nnc(SCC(=O)N3CCOCC3)o2)cc1OC	4.05 µM	18.5%	
CCc1c(C)c(C#N)c2nc3ccccc3n2c1Cl	1.98 µM	70%	
CN1/C(=C/C(=O)c2nc(S(C)(=O)=O)ncc2Cl)C(C)(C)c2ccccc21	> 10 µM (inactive)	97.9%	
CCOC(=O)CS(=O)(=O)c1nc(-c2ccccc2)cc(C(F)(F)F)n1	> 10 µM (inactive)	106%	
COC(=O)C1CN(C#N)N(c2ccc(Cl)cc2)C12c1ccccc1-c1ccccc12 (configuration not stated)	> 10 µM (inactive)	113%	
O=Cc1s/c(=N\S(=O)(=O)c2ccccc2)n(CCCCl)c1Cl	> 10 µM (inactive)	108%	
Cc1nc2scc(-c3ccccc3)c2c(=O)n1N=C1C=CC(=O)C=C1	> 10 µM (inactive)	92.3%	
O=S1(=O)C=C(Sc2nnc(-c3ccccc3)o2)c2ccccc21	> 10 µM (inactive)	72.7%	
O=C(OCn1ncc(Br)c(Br)c1=O)c1ccc(F)cc1	> 10 µM (inactive)	53.9%	
C#CC(=O)N(c1cccc(OC)c1)C(C(=O)NC1CCCC1)c1cccs1 (configuration not stated)	> 10 µM (inactive)	90%	
O=S(=O)(/C(=C/c1ccc(C(F)(F)F)cc1)c1nc2ccccc2[nH]1)c1ccccc1	> 10 µM (inactive)	104%	
CCc1ccc(N2C(=O)NC(=O)/C(=C/c3cccn3CCOc3ccc(C(C)CC)cc3)C2=O)cc1 (configuration not stated)	1.37 µM	17.9%	
Cc1cc2cc(C=C(C#N)C#N)c(Cl)nc2cc1C	2.39 µM	4.88%	
Cc1ccc(Cl)c(NC(=O)COC(=O)c2ccccc2C(=O)c2ccc(Cl)c([N+](=O)[O-])c2)c1Cl	> 10 µM (inactive)	96.8%	
CCOC(=O)/C=C/S(=O)(=O)c1ccc(NC(C)=O)cc1	1.39 µM	6.27%	
O=C(Nc1ccc2oc(-c3cccnc3)nc2c1)c1ccc([N+](=O)[O-])o1	2.73 µM	54.4%	
Cc1ccc(-c2nc(NC(=O)c3nn(C)cc3[N+](=O)[O-])sc2C)cc1	5.25 µM	69.6%	
O=C(CS(=O)c1ccc(C(F)(F)F)cc1[N+](=O)[O-])Oc1ccccc1 (configuration not stated)	> 10 µM (inactive)	88.5%	
Cn1c(SC2=CS(=O)(=O)c3ccccc32)nc2ccccc21	2.53 µM	13.4%	
CC(C)(C)C(=O)/C(=C\c1cccc([N+](=O)[O-])c1)n1cncn1	3.04 µM	23.9%	
COCC(C)NC(=O)CCS(=O)(=O)c1nc(-c2ccc(OC)cc2)cc(C(F)(F)F)n1 (configuration not stated)	> 10 µM (inactive)	83%	
COc1cccc(-n2nc(C#N)c(Cl)cc2=O)c1	> 10 µM (inactive)	104%	

SMILES	IC50 [1]	cell count [2]	inhibition [2]
O=C(Cn1ncc(Cl)c(Cl)c1=O)N1CCc2ccccc21	2.48 µM	40%	
COc1ccc(CS(=O)/C(Cl)=C(/Cl)C(=O)Nc2ccc(OC)nc2)cc1 (configuration not stated)	2.02 µM	10.3%	
O=C(OCn1ncc(Cl)c(Cl)c1=O)c1ccccc1Cl	> 10 µM (inactive)	45.3%	
Cc1cc(C)cc(NC(=O)c2ccc([N+](=O)[O-])o2)c1	2.11 µM	98.3%	
COC(=O)c1ccccc1NC(=O)c1ccc(-c2cccc(Cl)c2)o1	2.09 µM	13.8%	
COc1ccc(NC(=O)c2cc3c(Cl)nc4ccccc4c3s2)c(OC)c1	> 10 µM (inactive)	89.6%	
C=C1C(=O)C=C2CN(C(=O)c3ccccc3)[C@@](Cc3ccc(F)cc3)(C(=O)OC)[C@@H]12	> 10 µM (inactive)	104%	
CC(C)(C)C(=O)/C(=C\c1ccc([N+](=O)[O-])cc1)n1cncn1	> 10 µM (inactive)	94.9%	
Cn1cc([N+](=O)[O-])c(C(=O)Nc2nc(-c3ccc(Cl)cc3)cs2)n1	> 10 µM (inactive)	97.8%	
C=C1C(=O)[C@@]23[C@H](O)C[C@@H]4C(C)(C)CC[C@H](O)[C@@]4(C)[C@@H]2CC[C@@H]1[C@H]3O	2 µM	10.1%	
COc1ccc(Oc2cc(NC(=O)c3nn(C)cc3[N+](=O)[O-])cc([N+](=O)[O-])c2)cc1	3.5 µM	23.9%	
C#CC(=O)N(c1cc(OC)ccc1OC)C(C(=O)NC1CCCC1)c1cccs1 (configuration not stated)	9.61 µM	33.9%	
O=C(NCCC1=CCCCC1)c1coc(=O)c(Br)c1	2.77 µM	1.14%	
O=C(Nc1ccccc1)C1=C(c2ccccc2)S(=O)(=O)CCS1(=O)=O	7.63 µM	77.8%	
O=C(OCn1ncc(Cl)c(Cl)c1=O)c1cccc(C(F)(F)F)c1	> 10 µM (inactive)	102%	
CCN(CC)c1ccc2c(Cl)c(Br)c(=O)oc2c1	2.16 µM	11.5%	
O=S(=O)(C/C(=C/CO)S(=O)(=O)c1ccccc1)c1ccccc1	> 10 µM (inactive)	97.8%	
C=CS(=O)(=O)c1ccc(Oc2ccc(S(=O)(=O)C=C)cc2)cc1	> 10 µM (inactive)	95.2%	
CC(C)(C)C1=CC(=O)C(=O)C(C(C)(C)C)=C1	> 10 µM (inactive)	95%	
COCCN(CC(=O)NC1CCCCC1)C(=O)/C=C/C(=O)c1ccc(OC)cc1O	> 10 µM (inactive)	95%	
Cc1c(Nc2cc(Cl)c3nonc3c2[N+](=O)[O-])c(=O)n(-c2ccccc2)n1C	6.67 µM	66.3%	
CN(C)c1nc(C=C(C#N)C#N)c(Cl)n1-c1ccc(F)cc1	1.74 µM	46.6%	

SMILES	IC50 [1]	cell count [2]	inhibition [2]
CS(=O)(=O)c1ccc(S(=O)CC(=O)OCc2ccccc2)c([N+](=O)[O-])c1 (configuration not stated)	> 10 µM (inactive)	98.7%	
C=CCSc1nc2ccccc2n1C(=O)/C=C/c1cc(OC)c(OC)c(OC)c1	2.17 µM	24.8%	
Cc1cc(C)c2cc(CN(Cc3ccc4c(c3)OCO4)Cc3nnnn3Cc3ccco3)c(=O)[nH]c2c1			-1.09% (inactive)
COCCNC(=O)c1ccc(N(C)S(=O)(=O)c2ccc(OC)c(OC)c2)cc1			0.94% (inactive)
N#CCc1ccc(NS(=O)(=O)c2cccs2)cc1			7.74% (inactive)
Cc1cc(=O)n2nc(-c3ccccc3)sc2c1C#N			1.2% (inactive)
CCOC(=O)Cc1c(C)nc2c(-c3ccccc3)c[nH]n2c1=O			0.71% (inactive)
c1nc(NCCN2CCOCC2)c2sc3nc(N4CCOCC4)c4c(c3c2n1)CCC4			34.1% (inactive)
CCc1ccc(CN(C)C(=O)c2cc(COc3c(F)cccc3F)on2)cc1			13% (inactive)
CC(C)Cc1nnc(NS(C)(=O)=O)s1			4.19% (inactive)
O=c1[nH]c2cc(NCCO)c([N+](=O)[O-])cc2[nH]1			15.2% (inactive)
CC(C)C(=O)Nc1ccc(-c2nc3cccnc3o2)cc1			15.7% (inactive)
Cc1ccc(N)cc1S(=O)(=O)N(C)C			7.3% (inactive)
CCC(CC)C(=O)c1c[nH]c(C(=O)NCCCN2CCOCC2)c1			2.64% (inactive)
CN1CCCN(S(=O)(=O)c2cccc(Cl)c2Cl)CC1			-0.57% (inactive)
COCc1cc(C)nc(OCC(=O)N/N=C/c2ccc(-c3cc([N+](=O)[O-])ccc3C)o2)c1C#N			19% (inactive)
O=C(N/N=C/c1ccc(C(F)(F)F)cc1)c1ccc(O)cc1			4.56% (inactive)
O=C(c1ccc(COCC(F)(F)F)o1)N1CCCCCC1			5.74% (inactive)
CC(c1ccco1)N(C(=O)C12CC3CC(CC(C3)C1)C2)c1ccccn1 (configuration not stated)			5.6% (inactive)
COc1ccc(-c2ccc(C(=S)N3CCN(C(C)=O)CC3)o2)cc1			3.01% (inactive)
C=CCn1c(SCC(=O)NC)nc2sc3c(c2c1=O)CCC3			4.27% (inactive)
CS(=O)(=O)N(CC(=O)NCCC1=CCCCC1)C1CCCCC1			-0.77% (inactive)

SMILES	IC50 [1]	cell count [2]	inhibition [2]
Cc1ccc(/C=N/n2c(=O)c(C(C)(C)C)nn3cnnc23)cc1			6.53% (inactive)
Cc1ccc(Cn2ncc3c(N4CCN(C5CCCC5)CC4)ncnc32)cc1			3.96% (inactive)
FC(F)(F)c1cnc2c(-c3ccccc3)n[nH]c2c1			0.15% (inactive)
COc1ccc(-c2cc(C)nc(SCc3cccc(C(=O)O)c3)n2)cc1			16.2% (inactive)
CN(C)S(=O)(=O)c1cc(NC(=O)CSc2nn(-c3ccc(Cl)cc3)c(=S)s2)ccc1Cl			-2.75% (inactive)
CCn1nnnc1-c1ccc(OC)c(S(=O)(=O)NCc2ccccc2)c1			5.72% (inactive)
Cn1cc(Cl)c(C(=O)NNC(=S)NCc2ccco2)n1			7.71% (inactive)
O=C(O)COc1ccc(/C=N/n2cnc3scc(-c4cccs4)c3c2=O)cc1			5.08% (inactive)
O=C(COC(=O)CCc1ccc(S(=O)(=O)N2CCOCC2)cc1)NC1CCCC1			2.85% (inactive)
CC(C)CC(=O)n1sc(NC(=O)c2ccccc2)nc1=O			-4.08% (inactive)
Cn1c(SCc2ccc(Br)cc2)nnc1-c1ccncc1			0.83% (inactive)
O=C(COc1ccc([N+](=O)[O-])cc1Cl)NCCc1ccccc1			-2.48% (inactive)
COc1ccc(-c2noc(CCC(N)=O)n2)cc1OC			16.5% (inactive)
Cc1ccc(SCCC(=O)Nc2ccccc2C(=O)NC(C)C)cc1			12.3% (inactive)
Cc1ccc(N2C(=O)[C@@H]3C(C(=O)CCN4C(=O)c5ccccc5C4=O)=NN[C@@H]3C2=O)cc1			6.74% (inactive)
CCOC(=O)c1cc2c(ccn2C)n1CC(=O)N1CCC(Cc2ccccc2)CC1			4.26% (inactive)
COc1ccc(S(=O)(=O)NCc2csc(-c3cccnc3)n2)cc1			4.07% (inactive)
CC(=O)c1ccc(NC(=S)N2CC(C)CC(C)C2)cc1 (configuration not stated)			-4.33% (inactive)
Cc1ccc(NC(=O)N2CCC(C(=O)NCCC3=CCCCC3)CC2)cc1			11.6% (inactive)
CCOC(=O)c1c(NC(=O)CSc2nnc(CNc3ccc(C)cc3C)o2)sc(C)c1C			2.5% (inactive)

Source: PubChem BioAssay AID1288 (Columbia University Molecular Screening Center, 2008)
